These results are taken from paper PMC11785687, “An efficient methodological approach for synthesis of selenopyridines: generation, reactions, anticancer activity, EGFR inhibitory activity and molecular docking studies” (Molecular Diversity, 2024).

Data set [1] has as its system prostate cancer (PC-3) cell line. Briefly: SRB cytotoxicity assay, PC-3 cells. The following applies: for inhibition of cell proliferation / cytotoxic effect (in words), PC-3: tested until 100 µM. The format is cell-based, human. As to the method:
(§1) Fig. 3 The effect of synthesized compounds against the highly metastatic cancer cell lines PC-3 and MG-63 cell lines after 72 h incubation and viability was assessed by the SRB assay. Values represent the mean ± SD of three independent experiments
(§2) The SRB assay was used to evaluate the effect of the synthesized selenium containing heterocyclic compounds on cancer cells according to the previous literatures (see Supporting Information).
(§3) The human prostate cancer cells (PC3) and human osteosarcoma cells (MG-63) were obtained from Nawah Scientific Inc. (Mokatam, Cairo, Egypt) and cultured in DMEM (Dulbecco’s modified eagle’s medium), Gibco, USA, supplemented with fetal bovine serum (FBS) at a concentration of 10% and 100 U/mL of penicillin and streptomycin (PS). The Cells were incubated at 37 °C in a humidified environment that contained 5% CO2.
(§4) Cells were seeded in 96-well plates as aliquots of 100 μL cell suspension and incubated in a complete media for 24 h. Afterward, cells were treated with synthesized compounds at diverse concentrations ranging from 0.01 μM to 100 μM for 72 h. Then, cells were fixed at 4 °C for one hour with 150 μL of 10% trichloroacetic acid (TCA). After washing the cells five times with distilled water, 70 μL of sulforhodamine (SRB) solution (0.4% w/v) was added and incubated for 10 min at room temperature in a dark place. Cells were washed with 1% acetic acid three times and allowed to air-dry. Then, 150 μL of Tris pH 10.5 (10 mM) was added, and the absorbance was measured at 540 nm using a BMG LABTECH®- FLUOstar Omega microplate reader (Ortenberg, Germany). Half maximal inhibitory concentrations (IC50) values were calculated for each experiment using GraphPad Prism 6 software. IC50 values were reported as mean ± SD [53].
On the technique in general: Sulforhodamine B stains cellular protein and so reports cell mass.

Data set [2] has as its system osteosarcoma (MG-63) cell line. Briefly: SRB cytotoxicity assay, MG-63 cells. The format is cell-based, human. The following applies: for inhibition of cell proliferation / cytotoxic effect (in words), MG-63: tested until 100 µM. As to the method:
as §1, §2, §3, §4

For data set [3], the target named is T1, EGFR kinase (Homo sapiens, UniProt P00533).
T1 construct: purchased cloud clone SEA757Hu
T1 sequence (P00533 25-1210): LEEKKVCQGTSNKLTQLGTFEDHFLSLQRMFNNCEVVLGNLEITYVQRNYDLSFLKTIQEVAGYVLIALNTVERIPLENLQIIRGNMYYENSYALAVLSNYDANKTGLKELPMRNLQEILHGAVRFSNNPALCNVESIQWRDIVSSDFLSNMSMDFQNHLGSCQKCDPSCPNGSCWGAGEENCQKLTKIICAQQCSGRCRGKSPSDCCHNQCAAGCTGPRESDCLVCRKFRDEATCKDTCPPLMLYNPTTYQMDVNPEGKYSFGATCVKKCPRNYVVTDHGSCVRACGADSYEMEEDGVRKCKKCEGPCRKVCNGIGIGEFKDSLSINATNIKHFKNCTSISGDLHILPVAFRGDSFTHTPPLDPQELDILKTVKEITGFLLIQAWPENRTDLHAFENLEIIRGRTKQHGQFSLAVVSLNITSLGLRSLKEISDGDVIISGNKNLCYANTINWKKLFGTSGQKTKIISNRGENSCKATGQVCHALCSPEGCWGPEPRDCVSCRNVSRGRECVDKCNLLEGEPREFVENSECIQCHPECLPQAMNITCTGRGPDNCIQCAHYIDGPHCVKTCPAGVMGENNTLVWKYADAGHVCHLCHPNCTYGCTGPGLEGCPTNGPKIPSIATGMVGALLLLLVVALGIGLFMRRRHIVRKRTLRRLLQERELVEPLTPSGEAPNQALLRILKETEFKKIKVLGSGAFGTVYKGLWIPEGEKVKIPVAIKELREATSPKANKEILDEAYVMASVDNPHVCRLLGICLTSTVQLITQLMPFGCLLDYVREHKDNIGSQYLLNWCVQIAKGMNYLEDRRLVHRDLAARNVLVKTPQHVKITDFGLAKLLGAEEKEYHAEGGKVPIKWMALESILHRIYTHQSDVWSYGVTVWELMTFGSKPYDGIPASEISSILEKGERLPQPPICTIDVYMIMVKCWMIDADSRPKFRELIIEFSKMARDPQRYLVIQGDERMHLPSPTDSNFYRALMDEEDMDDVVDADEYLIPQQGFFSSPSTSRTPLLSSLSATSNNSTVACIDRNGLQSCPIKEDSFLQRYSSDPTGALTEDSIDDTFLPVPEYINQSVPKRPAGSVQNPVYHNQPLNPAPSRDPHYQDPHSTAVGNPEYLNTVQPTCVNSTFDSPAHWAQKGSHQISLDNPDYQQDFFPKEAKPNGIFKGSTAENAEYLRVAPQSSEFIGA
Put plainly: EGFR-TK cell-free inhibitory assay. The format is biochemical. How it is done:
A cell-free assay was used to investigate the mechanism of inhibition of EGFR kinase according to the reported method (see Supporting Information).
A cell-free assay was used to investigate the mechanism of inhibition of EGFR kinase according to the reported method. […] 200 µM (EGFR) was used. […] Mean values of two independent replicates for each experiment were used for the interpolation.

Where [4] appears, read: Homo sapiens, PC-3, 72 h, read-out: IC50 values (µM) PC-3, SRB assay, 72 h incubation, mean ± SD.
Setting [5] is: Homo sapiens, MG-63, 72 h, read-out: IC50 values (µM) MG-63, SRB assay, 72 h incubation, mean ± SD.
The mark [6] stands for this setting: read-out: IC50 values (µM) PC-3, SRB assay, 72 h incubation, mean ± SD.
The mark [7] stands for this setting: read-out: IC50 values (µM) MG-63, SRB assay, 72 h incubation, mean ± SD.
The mark [8] stands for this setting: Homo sapiens, PC-3, 72 h, SRB assay, 72 h incubation, mean ± SD, read-out: IC50 values (µM) PC-3.
[9] abbreviates: Homo sapiens, MG-63, 72 h, SRB assay, 72 h incubation, mean ± SD, read-out: IC50 values (µM) MG-63.

Structures are written as SMILES. Where two headings read alike, the source gives them in different places. A value given as a limit tells only on which side of the number the result lay.

In the case of `C[Se]c1nc(N)cc(N)c1C#N`, the melting point fell in the range of 148 to 150 °C.

In the case of `N#CC[Se]c1nc(N)c(Br)c(N)c1C#N`, the melting point lay in the range of 176 to 178 °C.

`N#Cc1c([Se][Se]c2nc(N)c(Sc3ccccc3)c(N)c2C#N)nc(N)c(Sc2ccccc2)c1N` had a melting point of 198 to 200 °C.

In turn, `N#Cc1c([Se][Se]c2nc(N)c(Sc3ccc(Cl)cc3)c(N)c2C#N)nc(N)c(Sc2ccc(Cl)cc2)c1N` showed a melting point of 236 to 238 °C.

In the case of `N#Cc1[se]c2nc(N)cc(N)c2c1N` [Compound 2, 3,4,6-triamino-2-cyanoselenopheno[2,3-b]pyridine], the melting point fell in the range of 258 to 260 °C. Also, the IC50 in data set [1] (setting [4]) is more than 100 µM. The “inhibition of cell proliferation / cytotoxic effect (in words), PC-3” value in data set [1] (SRB assay) is “without significant inhibition of cell proliferation”. In addition, in data set [2] (setting [5]), the IC50 was more than 100 µM. For the same compound, the “inhibition of cell proliferation / cytotoxic effect (in words), MG-63” value in data set [2] (SRB assay) was “without significant inhibition of cell proliferation”.

Regarding `CN(C)c1cc(N)c(C#N)c([Se][Se]c2nc(N(C)C)cc(N)c2C#N)n1` [Compound 4], the melting point lay within 172 to 174 °C. For the same compound, the IC50 in data set [1] (setting [4]) worked out at 233 ± 2.6 µM. Moreover, the “inhibition of cell proliferation / cytotoxic effect (in words), PC-3” value in data set [1] (SRB assay) was “without significant inhibition of cell proliferation”. The IC50 in data set [2] (setting [5]) was determined as 240 ± 3.2 µM. In addition, the “inhibition of cell proliferation / cytotoxic effect (in words), MG-63” value in data set [2] (SRB assay) is “without significant inhibition of cell proliferation”.

In turn, `N#Cc1[se]c2nc(N)c(Br)c(N)c2c1N` [Compound 7, 3,4,6-triamino-5-bromoselenopheno[2,3-b]pyridine-2-carbonitrile] returned a melting point of 268 to 270 °C. The IC50 in data set [1] (setting [4]) was more than 100 µM. In addition, in data set [1] (SRB assay), the “inhibition of cell proliferation / cytotoxic effect (in words), PC-3” value was “without significant inhibition of cell proliferation”. Moreover, the IC50 in data set [2] (setting [5]) is more than 100 µM. Besides, the “inhibition of cell proliferation / cytotoxic effect (in words), MG-63” value in data set [2] (SRB assay) is recorded as “without significant inhibition of cell proliferation”.

For the compound `Nc1nc2[se]c(-c3nc4ccccc4s3)c(N)c2c(N)c1Br` [Compound 9, 2-(benzo[d]thiazol-2-yl)-5-bromo-selenopheno[2,3-b]-pyridine-3,4,6-triamine], the IC50 stood at 51.1 ± 3 µM in data set [1] (setting [4]) and 62.8 ± 3.45 µM in data set [2] (setting [5]). Also, the “inhibition of cell proliferation / cytotoxic effect (in words), PC-3” value in data set [1] (SRB assay) is reported as “low cytotoxic effects”. For the same compound, the “inhibition of cell proliferation / cytotoxic effect (in words), MG-63” value in data set [2] (SRB assay) is on record as “low cytotoxic effects”.

As to `CC(=O)Nc1cc2c3c(c(C#N)[se]c3n1)N=C(C)N2` [Compound 11, N-(2-cyano-4-methyl-5H-1-seleno-3,5,8-triazaacenaphthylen-7-yl)acetamide], the IC50 in data set [1] (setting [4]) was found to be 34.7 ± 0.77 µM; in data set [2] (setting [5]) it was 62.2 ± 1.51 µM. Moreover, the “inhibition of cell proliferation / cytotoxic effect (in words), PC-3” value in data set [1] (SRB assay) is “low cytotoxic effects”. Besides, in data set [2] (SRB assay), the “inhibition of cell proliferation / cytotoxic effect (in words), MG-63” value is on record as “low cytotoxic effects”.

On to `N#Cc1[se]c2nc(N)c(N=Nc3ccccc3)c(N)c2c1N` [Compound 12a, 3,4,6-Triamino-5-[phenyldiazenyl]selenopheno[2,3-b]pyridine-2-carbonitrile], for which the IC50 in data set [1] (setting [4]) is less than 4 µM; in data set [1] (setting [6]) it was 2.69 ± 0.03 µM; in data set [2] (setting [5]) it was less than 4 µM; in data set [2] (setting [7]) it was 3.45 ± 0.2 µM; in data set [3] it was 0.301 ± 0.012 µM.

On to `Cc1ccc(N=Nc2c(N)nc3[se]c(C#N)c(N)c3c2N)cc1` [Compound 12b, 3,4,6-Triamino-5-(4-methylphenyl)diazenylselenopheno[2,3-b]pyridine-2-carbonitrile], for which the IC50 in data set [1] (setting [4]) is less than 4 µM; in data set [1] (setting [6]), 2.59 ± 0.02 µM; in data set [2] (setting [5]), less than 4 µM; in data set [2] (setting [7]), 3.37 ± 0.22 µM; in data set [3], 0.123 ± 0.004 µM.

As for `COc1ccc(N=Nc2c(N)nc3[se]c(C#N)c(N)c3c2N)cc1` [Compound 12c, 3,4,6-Triamino-5-[(4-methoxyphenyl)diazenyl]selenopheno[2,3-b]pyridine-2-carbonitrile], the IC50 in data set [1] (setting [4]) is less than 4 µM; in data set [1] (setting [6]), 2.75 ± 0.09 µM; in data set [2] (setting [5]), less than 4 µM; in data set [2] (setting [7]), 3.37 ± 0.12 µM.

Regarding `N#Cc1[se]c2nc(N)c(N=Nc3ccc(Cl)cc3)c(N)c2c1N` [Compound 12d, 3,4,6-Triamino-5-[(4-chlorophenyl)diazenyl]selenopheno[2,3-b]pyridine-2-carbonitrile], the IC50 was less than 4 µM in data set [1] (setting [4]), 3.08 ± 0.01 µM in data set [1] (setting [6]), less than 4 µM in data set [2] (setting [5]) and 3.93 ± 0.23 µM in data set [2] (setting [7]).

As to `COc1cccc2c1C(=O)c1c(O)c3c(c(O)c1C2=O)C[C@@](O)(C(=O)CO)C[C@@H]3O[C@H]1C[C@H](N)[C@H](O)[C@H](C)O1` [DOX, doxorubicin, reference compound], the IC50 in data set [1] (setting [8]) turned out to be 7.6 ± 0.45 µM; in data set [2] (setting [9]) it was 9.4 ± 1.1 µM.

`CS(=O)(=O)CCNCc1ccc(-c2ccc3ncnc(Nc4ccc(OCc5cccc(F)c5)c(Cl)c4)c3c2)o1` [Lapatinib, lapatinib, reference compound]: the IC50 stood at 0.13 ± 0.04 µM in data set [1] (setting [8]) and 0.47 ± 0.03 µM in data set [2] (setting [9]).

As usually defined, the melting point is the temperature, or range, at which the solid turns liquid. What is called IC50 is the point on the concentration scale where inhibition reaches its midpoint.
